Our source for the GI50 and TGI values is PubChem BioAssay (NCI).

Test systems include BT-549 breast; DU-145 prostate; EKVX NSCLC; HL-60(TB) leukemia; MOLT-4 leukemia; NCI-H226 lung; NCI-H522 lung; SNB-75 CNS; UACC-257 melanoma; UACC-62 melanoma.
What all share (assay): growth of human tumour cells (NCI), 48 h

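Each compound was tested at five concentrations against cells in 96-well plates for 48 hours. At the GI50, growth is halved. TGI is the concentration that stops growth completely.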

With H-QIYKKYRTWYRKAWKVLGKV-NH2, the GI50 is 5.36 µM in the test on BT-549 breast; 3.54 µM with DU-145 prostate; 3.04 µM in the test with EKVX NSCLC; 2.84 µM with HL-60(TB) leukemia; 11.7 µM in the test on MOLT-4 leukemia; 12.4 µM in the test on NCI-H226 lung. Also, the GI50 in the test on NCI-H522 lung was 25.8 µM; with SNB-75 CNS, 6.06 µM; with UACC-257 melanoma, 13.8 µM; in the test with UACC-62 melanoma it was 2.08 µM. Besides, the TGI in the test on BT-549 breast worked out at 27.2 µM; in the test on DU-145 prostate, 11.8 µM; with EKVX NSCLC it was 11.7 µM; in the test on HL-60(TB) leukemia, 8.76 µM; in the test with MOLT-4 leukemia it was 79.5 µM; in the test on NCI-H226 lung, 58.7 µM. The TGI is over 100 µM in the test on NCI-H522 lung, 22.5 µM in the test with SNB-75 CNS, 51.6 µM in the test on UACC-257 melanoma and 4.74 µM in the test with UACC-62 melanoma.

On to `O=C(/C=C/c1ccco1)c1ccc(Nc2nc(Nc3ccc(F)cc3)nc(Nc3ccc(F)cc3)n2)cc1`, for which the GI50 in the test on BT-549 breast is 4.9 µM; with DU-145 prostate, 28.8 µM; in the test with EKVX NSCLC, 54.3 µM; in the test with HL-60(TB) leukemia, 17.5 µM; in the test on MOLT-4 leukemia, 11.9 µM; with NCI-H226 lung it was 53.3 µM. The GI50 in the test with NCI-H522 lung is 21.4 µM; with SNB-75 CNS, 30.7 µM; with UACC-257 melanoma, over 100 µM; in the test with UACC-62 melanoma it was over 100 µM. The TGI is 26.8 µM with BT-549 breast; over 100 µM with DU-145 prostate; over 100 µM with EKVX NSCLC; 52.9 µM with HL-60(TB) leukemia; 48.8 µM with MOLT-4 leukemia; over 100 µM with NCI-H226 lung. The TGI in the test with NCI-H522 lung was 74.6 µM; in the test on SNB-75 CNS, 91.7 µM; in the test with UACC-257 melanoma, over 100 µM; with UACC-62 melanoma, over 100 µM.

`COc1cc(/C=N/NC(=O)c2ccccc2Nc2cccc(C(F)(F)F)c2)cc(OC)c1OC`: the GI50 with BT-549 breast was 2.3 µM; in the test with DU-145 prostate it was 2.61 µM; with EKVX NSCLC, 3.08 µM; in the test on HL-60(TB) leukemia, 2.01 µM; with MOLT-4 leukemia, 3.14 µM; in the test on NCI-H226 lung, 7.45 µM. Further, the GI50 in the test with NCI-H522 lung is 6.1 µM; with SNB-75 CNS, 1.54 µM; in the test with UACC-257 melanoma it was 4.36 µM; in the test on UACC-62 melanoma it was 3.66 µM. The TGI with BT-549 breast came out at 9.23 µM; in the test with DU-145 prostate, 8.39 µM; in the test with EKVX NSCLC, 19.5 µM; with HL-60(TB) leukemia, 4.73 µM; with MOLT-4 leukemia it was 15.3 µM; in the test with NCI-H226 lung, 25.2 µM. Also, the TGI in the test with NCI-H522 lung was found to be 24.6 µM; in the test with SNB-75 CNS it was 10.4 µM; in the test on UACC-257 melanoma, 15.4 µM; with UACC-62 melanoma it was 11.6 µM.

Consider `O=C(Nc1cccc(C(F)(F)F)c1)c1cc2ccccc2cc1O`, for which the GI50 in the test with BT-549 breast is 1.27 µM; in the test with DU-145 prostate, 2.22 µM; with EKVX NSCLC, 1.87 µM; with HL-60(TB) leukemia, 1.15 µM; with MOLT-4 leukemia it was 3.37 µM; in the test on NCI-H226 lung it was 2.22 µM. Further, the GI50 is 0.471 µM in the test on NCI-H522 lung, 2.25 µM in the test with SNB-75 CNS, 2.97 µM with UACC-257 melanoma and 0.835 µM with UACC-62 melanoma. The TGI with BT-549 breast was 6.09 µM; in the test on DU-145 prostate it was over 100 µM; in the test on EKVX NSCLC, 7.69 µM; in the test with HL-60(TB) leukemia, 12.1 µM; in the test on MOLT-4 leukemia it was over 35.6 µM; in the test with NCI-H226 lung it was over 100 µM. Moreover, the TGI in the test on NCI-H522 lung was over 19.9 µM; with SNB-75 CNS, over 39.7 µM; in the test on UACC-257 melanoma, over 24.7 µM; in the test with UACC-62 melanoma, over 46.1 µM.

For the molecule `N#C/C(=C\c1ccc2[nH]ccc2c1)C(=O)c1ccc(O)c(O)c1`, the TGI with BT-549 breast was over 100 µM; in the test on DU-145 prostate it was over 100 µM; in the test with EKVX NSCLC, over 100 µM; in the test on HL-60(TB) leukemia, over 95.1 µM; in the test with MOLT-4 leukemia it was over 100 µM; in the test with NCI-H226 lung, over 100 µM. The TGI in the test with NCI-H522 lung, in the test with SNB-75 CNS, in the test on UACC-257 melanoma and with UACC-62 melanoma was over 100 µM each time.

`O=C(/C=C/c1cccc2ccccc12)Nc1ncc(Cc2ccccc2)s1`: the GI50 in the test on BT-549 breast is 2.44 µM; in the test on DU-145 prostate, 1.61 µM; in the test on EKVX NSCLC, 1.12 µM; with HL-60(TB) leukemia it was 0.669 µM; in the test on MOLT-4 leukemia, 1.65 µM; with NCI-H226 lung it was 1.37 µM. The GI50 with NCI-H522 lung was 0.703 µM; in the test with SNB-75 CNS, 0.344 µM; in the test with UACC-257 melanoma, 4.97 µM; in the test with UACC-62 melanoma, 0.437 µM. The TGI with BT-549 breast was over 100 µM; in the test with DU-145 prostate, over 100 µM; in the test with EKVX NSCLC, over 100 µM; in the test with HL-60(TB) leukemia it was 3.58 µM; in the test with MOLT-4 leukemia it was over 100 µM; in the test on NCI-H226 lung, over 100 µM. For the same molecule, the TGI was over 32.8 µM in the test with NCI-H522 lung, 1.55 µM in the test on SNB-75 CNS, over 100 µM in the test on UACC-257 melanoma and over 100 µM in the test with UACC-62 melanoma.
